# According to patent US20120277161A1, “INHIBITION OF MULTIPLE CELL ACTIVATION PATHWAYS” (INTER-K PTY LIMITED, priority 2009, published 2012):
# Legend:
# human Lyn = human Lyn (Homo sapiens, UniProt P07948); test: Lyn kinase activity assay; type: biochemical; details: 20 μM
# Description: In a final reaction volume of 25 μl, human Lyn is incubated with the RSKAKNPLYR peptide (SEQ ID No: 6) in 50 mM Tris buffer pH 7.5, 0.1 mM EGTA, 0.1 mM Na3VO4, 1% mercaptoethanol, 0.1 mg/ml poly(Glu,Tyr) 4:1, 10 mM Mg acetate and [γ-33P-ATP] (specific activity approx. 500 cpm/pmol). The reaction was initiated by the addition of the MgATP mix, incubated for 40 minutes at room temperature prior to being stopped and kinase activity assessed by scintillation counting as per the protocol described for c-Src described in Example 1.1.
# human Yes = human Yes (Homo sapiens, UniProt P07947); test: Yes kinase activity assay; type: biochemical; details: 20 μM
# Description: In a final reaction volume of 25 μl, human Yes is incubated with the RSKAKNPLYR peptide (SEQ ID No: 6) in 8 mM MOPS buffer pH 7.0, 0.2 mM EDTA, 0.1 mg/ml poly(Glu,Tyr) 4:1, 10 mM Mg acetate and [γ-33P-ATP] (specific activity approx. 500 cpm/pmol). The reaction is initiated by the addition of the MgATP mix, incubated for 40 minutes at room temperature prior to being stopped and kinase activity assessed by scintillation counting again as per the protocol described for c-Src in Example 1.1.
# PKB alpha = PKB alpha (Homo sapiens, UniProt P31749); test: PKB kinase activity assay; type: biochemical; details: 20 μM, relative to control
# Description: In a final reaction volume of 25 μL, PKB(h) (5-10 mU) is incubated with 8 mM MOPS pH 7.0, 0.2 mM EDTA, 30 μM GRPRTSSFAEGKK (SEQ ID No. 26), 10 mM MgAcetate and [γ-33P-ATP] (specific activity approx. 500 cpm/pmol, concentration as required). The reaction is initiated by the addition of the MgATP mix. After incubation for 40 minutes at room temperature, the reaction is stopped by the addition of 5 μL of a 3% phosphoric acid solution. 10 μL of the reaction mixture is then spotted onto a P30 filtermat and washed three times for 5 minutes in 75 mM phosphoric acid and once in methanol prior to drying and scintillation counting.
# JNK = JNK activity; type: biochemical; details: 20 μM, data not shown
# [1] = tested on: MCF-7 breast cancer cells; test: MTT growth/proliferation, MCF-7 cells; type: cell-based; details: 48 hours
# Description: In this study, the cells were incubated in the presence of the dendrimer for 48 hours. Cell lines were maintained at 37° C. in a humid atmosphere containing 5% CO2. Cells were passaged at pre-confluent densities using a solution containing 0.05% trypsin and 0.5 mM EDTA (Invitrogen).
# PI3K gamma = PI3K gamma (Homo sapiens, UniProt P48736); test: PI3K HTRF activity assay; type: biochemical; details: final concentration 50 μM
# [2] = tested on: HT29 human colorectal adenocarcinoma tumour; test: Inhibition of HT29 tumour growth in a mouse model; type: in vivo, Mouse (Mus musculus) BALB/c nu/nu; details: for Tumour volume Delta avg: change from day 0; for dT/dC [%]: versus vehicle
# Description: HT29 human colorectal adenocarcinoma cells were cultured in RPMI 1640 cell culture medium supplemented with 10% v/v heat inactivated FCS and 50 IU/mL penicillin-streptomycin. The cells were harvested by trypsinisation, washed twice in HBSS and counted. The cells were then resuspended in HBSS to a final concentration of 2×10^7 cells/mL.
# Prior to inoculation the skin on the injection site (dorsal right flank) was swabbed with alcohol. The needle was introduced through the skin into the subcutaneous space just below the animal's right shoulder, and 100 μL of cells (2×10^6 cells) were discharged. The treatment of mice began nine days after HT29 cell inoculation, the average tumour volume was 68 mm^3 (average variability of 6.1%).
# Body weight and tumour dimensions (length and diameter) were measured for all animals on the first day of treatment (day 0) and then three times per week, including the termination day of the study (Day 24).
# Mice were randomized, based on body weight, into two groups of ten mice on Day 0 of the study. The peptide dendrimer Dend 10-10(4) presenting 10 monomer units of the peptide RSKAKNPLYR (SEQ ID No. 6) (see Example 2) was used in this study. The vehicle control (phosphate buffered saline (PBS)) and Dend 10-10(4) dendrimer (20 mg/kg) were each administered by intra-tumoural injection once daily for five consecutive days, beginning on Day 0.
# The vehicle control and Dend 10-10(4) dendrimer were administered at a dosing volume of 4.762 mL/kg (100 μL) based on a 21 g mouse. Each animal's body weight was measured immediately prior to dosing. The volume of dosing solution administered to each mouse was calculated and adjusted based on individual body weight.
# Tumours were excised from all mice post mortem and weighed. Tumour volume was calculated using the equation:
# V (mm^3)=length×diameter^2×π/6
# ΔT/ΔC (%) was calculated using the following equation:
# ΔT/ΔC %=(ΔvolumeTreatment/ΔVolumeControl)×100
# where Δ=change in volume from day 0 to the final measurement day or nominated day of interest.
# human Yes, sequence (P07947 whole entry): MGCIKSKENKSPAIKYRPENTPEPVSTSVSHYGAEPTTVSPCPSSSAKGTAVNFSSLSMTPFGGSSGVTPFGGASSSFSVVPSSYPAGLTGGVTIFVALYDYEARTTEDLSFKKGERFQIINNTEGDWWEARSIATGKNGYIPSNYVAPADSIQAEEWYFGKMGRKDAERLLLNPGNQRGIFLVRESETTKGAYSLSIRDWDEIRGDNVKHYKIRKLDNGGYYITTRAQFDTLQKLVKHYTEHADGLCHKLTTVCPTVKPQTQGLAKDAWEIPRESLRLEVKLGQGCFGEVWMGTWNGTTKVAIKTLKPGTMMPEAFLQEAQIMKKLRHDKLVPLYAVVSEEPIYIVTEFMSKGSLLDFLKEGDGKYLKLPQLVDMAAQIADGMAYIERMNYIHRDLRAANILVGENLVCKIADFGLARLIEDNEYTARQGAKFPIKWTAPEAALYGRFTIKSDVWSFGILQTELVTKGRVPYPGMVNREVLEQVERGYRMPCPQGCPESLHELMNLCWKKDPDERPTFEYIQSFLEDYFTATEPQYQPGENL
# human Lyn, sequence (P07948 whole entry): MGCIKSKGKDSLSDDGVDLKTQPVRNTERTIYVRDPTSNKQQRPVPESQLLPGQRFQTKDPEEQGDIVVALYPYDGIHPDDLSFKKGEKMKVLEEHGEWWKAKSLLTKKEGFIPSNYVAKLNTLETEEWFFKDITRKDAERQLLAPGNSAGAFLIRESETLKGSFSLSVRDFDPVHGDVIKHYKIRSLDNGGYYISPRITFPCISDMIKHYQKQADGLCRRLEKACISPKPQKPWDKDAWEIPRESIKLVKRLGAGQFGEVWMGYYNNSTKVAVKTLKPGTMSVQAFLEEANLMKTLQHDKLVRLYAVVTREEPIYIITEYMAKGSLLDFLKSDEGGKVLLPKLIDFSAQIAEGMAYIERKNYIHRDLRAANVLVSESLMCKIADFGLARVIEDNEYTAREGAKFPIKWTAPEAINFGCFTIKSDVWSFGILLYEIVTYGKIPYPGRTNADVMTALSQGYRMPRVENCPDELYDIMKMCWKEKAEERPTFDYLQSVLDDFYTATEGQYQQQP
# PKB alpha, sequence (P31749 whole entry): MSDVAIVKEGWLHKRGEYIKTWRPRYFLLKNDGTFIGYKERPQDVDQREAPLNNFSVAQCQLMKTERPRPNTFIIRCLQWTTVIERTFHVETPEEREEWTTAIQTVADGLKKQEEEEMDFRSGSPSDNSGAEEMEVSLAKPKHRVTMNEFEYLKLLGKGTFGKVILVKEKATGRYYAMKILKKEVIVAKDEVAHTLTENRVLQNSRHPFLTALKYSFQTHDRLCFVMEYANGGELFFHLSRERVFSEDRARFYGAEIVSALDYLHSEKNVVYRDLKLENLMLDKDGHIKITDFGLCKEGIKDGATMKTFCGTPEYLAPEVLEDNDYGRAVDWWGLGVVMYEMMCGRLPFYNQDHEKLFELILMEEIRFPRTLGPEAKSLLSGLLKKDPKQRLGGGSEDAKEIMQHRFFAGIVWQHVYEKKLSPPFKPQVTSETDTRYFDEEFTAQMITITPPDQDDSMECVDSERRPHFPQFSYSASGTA
# PI3K gamma, sequence (P48736 whole entry, species assumed): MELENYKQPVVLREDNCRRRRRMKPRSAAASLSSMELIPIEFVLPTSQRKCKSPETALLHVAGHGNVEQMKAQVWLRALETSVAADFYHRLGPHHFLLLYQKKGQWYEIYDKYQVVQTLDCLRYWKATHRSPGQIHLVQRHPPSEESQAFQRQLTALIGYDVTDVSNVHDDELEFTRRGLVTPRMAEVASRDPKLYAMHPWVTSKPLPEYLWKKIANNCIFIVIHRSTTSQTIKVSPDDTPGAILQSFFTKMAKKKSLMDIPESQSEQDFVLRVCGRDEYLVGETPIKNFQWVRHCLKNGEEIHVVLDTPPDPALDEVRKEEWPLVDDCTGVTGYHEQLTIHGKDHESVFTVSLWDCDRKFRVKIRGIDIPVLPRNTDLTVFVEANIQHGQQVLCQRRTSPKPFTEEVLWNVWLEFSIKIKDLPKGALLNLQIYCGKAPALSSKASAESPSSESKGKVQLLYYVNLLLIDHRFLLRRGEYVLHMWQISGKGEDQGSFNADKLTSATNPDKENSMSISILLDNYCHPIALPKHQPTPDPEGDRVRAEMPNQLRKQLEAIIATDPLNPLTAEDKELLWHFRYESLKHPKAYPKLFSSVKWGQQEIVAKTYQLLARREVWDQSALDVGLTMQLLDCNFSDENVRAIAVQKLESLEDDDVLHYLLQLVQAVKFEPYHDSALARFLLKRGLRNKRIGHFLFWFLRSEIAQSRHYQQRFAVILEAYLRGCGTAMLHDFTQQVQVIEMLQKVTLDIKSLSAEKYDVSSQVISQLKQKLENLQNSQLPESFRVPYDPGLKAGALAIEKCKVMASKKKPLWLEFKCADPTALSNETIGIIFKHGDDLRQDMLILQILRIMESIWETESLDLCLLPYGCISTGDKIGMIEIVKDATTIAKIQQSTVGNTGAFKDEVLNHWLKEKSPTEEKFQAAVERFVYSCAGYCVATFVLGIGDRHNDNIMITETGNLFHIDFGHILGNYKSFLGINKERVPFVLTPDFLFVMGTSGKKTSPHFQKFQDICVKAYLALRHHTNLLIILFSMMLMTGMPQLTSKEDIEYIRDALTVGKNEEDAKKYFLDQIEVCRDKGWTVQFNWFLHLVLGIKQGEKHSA
compound,measurement,setting,value
Dend 10-10(4) whose RSKAKNPLYR peptides are entirely D-amino acids and pegylated with two ethylene glycol units [Dend 10-10(4)DP],inhibition of the activity of c-Lyn relative to controls,human Lyn,96%
same,inhibition of the activity of c-Yes relative to controls,human Yes,99%
same,% Kinase inhibition PKB alpha,PKB alpha,29%
same,effect on activity of JNK,JNK,without any effect
same,inhibition of growth/proliferation of MCF-7 cells,[1],inhibited growth/proliferation
CC(C)C[C@H](NC(=O)[C@@H]1CCCN1C(=O)[C@H](CC(N)=O)NC(=O)[C@H](CCCCN)NC(=O)[C@H](C)NC(=O)[C@H](CCCCN)NC(=O)[C@H](CO)NC(=O)[C@@H](N)CCCNC(=N)N)C(=O)N[C@@H](Cc1ccc(O)cc1)C(=O)N[C@@H](CCCNC(=N)N)C(=O)NCCCC[C@H](NC(=O)[C@H](CCCCNC(=O)[C@H](CCCCNC(=O)[C@H](CCCNC(=N)N)NC(=O)[C@H](Cc1ccc(O)cc1)NC(=O)[C@H](CC(C)C)NC(=O)[C@@H]1CCCN1C(=O)[C@H](CC(N)=O)NC(=O)[C@H](CCCCN)NC(=O)[C@H](C)NC(=O)[C@H](CCCCN)NC(=O)[C@H](CO)NC(=O)[C@@H](N)CCCNC(=N)N)NC(=O)[C@H](CCCNC(=N)N)NC(=O)[C@H](Cc1ccc(O)cc1)NC(=O)[C@H](CC(C)C)NC(=O)[C@@H]1CCCN1C(=O)[C@H](CC(N)=O)NC(=O)[C@H](CCCCN)NC(=O)[C@H](C)NC(=O)[C@H](CCCCN)NC(=O)[C@H](CO)NC(=O)[C@@H](N)CCCNC(=N)N)NC(=O)[C@H](CCCCNC(=O)[C@H](CCCNC(=N)N)NC(=O)[C@H](Cc1ccc(O)cc1)NC(=O)[C@H](CC(C)C)NC(=O)[C@@H]1CCCN1C(=O)[C@H](CC(N)=O)NC(=O)[C@H](CCCCN)NC(=O)[C@H](C)NC(=O)[C@H](CCCCN)NC(=O)[C@H](CO)NC(=O)[C@@H](N)CCCNC(=N)N)NC(=O)[C@H](CCCNC(=N)N)NC(=O)[C@H](Cc1ccc(O)cc1)NC(=O)[C@H](CC(C)C)NC(=O)[C@@H]1CCCN1C(=O)[C@H](CC(N)=O)NC(=O)[C@H](CCCCN)NC(=O)[C@H](C)NC(=O)[C@H](CCCCN)NC(=O)[C@H](CO)NC(=O)[C@@H](N)CCCNC(=N)N)C(=O)NCCCC[C@H](NC(=O)[C@H](CCCCNC(=O)[C@H](CCCNC(=N)N)NC(=O)[C@H](Cc1ccc(O)cc1)NC(=O)[C@H](CC(C)C)NC(=O)[C@@H]1CCCN1C(=O)[C@H](CC(N)=O)NC(=O)[C@H](CCCCN)NC(=O)[C@H](C)NC(=O)[C@H](CCCCN)NC(=O)[C@H](CO)NC(=O)[C@@H](N)CCCNC(=N)N)NC(=O)[C@H](CCCCNC(=O)[C@H](CCCCNC(=O)[C@H](CCCNC(=N)N)NC(=O)[C@H](Cc1ccc(O)cc1)NC(=O)[C@H](CC(C)C)NC(=O)[C@@H]1CCCN1C(=O)[C@H](CC(N)=O)NC(=O)[C@H](CCCCN)NC(=O)[C@H](C)NC(=O)[C@H](CCCCN)NC(=O)[C@H](CO)NC(=O)[C@@H](N)CCCNC(=N)N)NC(=O)[C@H](CCCNC(=N)N)NC(=O)[C@H](Cc1ccc(O)cc1)NC(=O)[C@H](CC(C)C)NC(=O)[C@@H]1CCCN1C(=O)[C@H](CC(N)=O)NC(=O)[C@H](CCCCN)NC(=O)[C@H](C)NC(=O)[C@H](CCCCN)NC(=O)[C@H](CO)NC(=O)[C@@H](N)CCCNC(=N)N)NC(=O)[C@H](CCCCNC(=O)[C@H](CCCNC(=N)N)NC(=O)[C@H](Cc1ccc(O)cc1)NC(=O)[C@H](CC(C)C)NC(=O)[C@@H]1CCCN1C(=O)[C@H](CC(N)=O)NC(=O)[C@H](CCCCN)NC(=O)[C@H](C)NC(=O)[C@H](CCCCN)NC(=O)[C@H](CO)NC(=O)[C@@H](N)CCCNC(=N)N)NC(=O)[C@H](CCCNC(=N)N)NC(=O)[C@H](Cc1ccc(O)cc1)NC(=O)[C@H](CC(C)C)NC(=O)[C@@H]1CCCN1C(=O)[C@H](CC(N)=O)NC(=O)[C@H](CCCCN)NC(=O)[C@H](C)NC(=O)[C@H](CCCCN)NC(=O)[C@H](CO)NC(=O)[C@@H](N)CCCNC(=N)N)C(=O)NCCC(N)=O [Dend 10-10(4)],PIK3 gamma % activity relative to control,PI3K gamma,11%
same,Tumour volume Average,"[2]; 20 mg/kg intra-tumoural once daily for five days, Day 0",68.0 mm^3
same,Tumour volume Average,"[2]; 20 mg/kg intra-tumoural once daily for five days, Day 2",136.6 mm^3
same,Tumour volume Average,"[2]; 20 mg/kg intra-tumoural once daily for five days, Day 4",211.9 mm^3
same,Tumour volume Average,"[2]; 20 mg/kg intra-tumoural once daily for five days, Day 7",248.6 mm^3
same,Tumour volume Average,"[2]; 20 mg/kg intra-tumoural once daily for five days, Day 11",300.9 mm^3
same,Tumour volume Average,"[2]; 20 mg/kg intra-tumoural once daily for five days, Day 14",323.9 mm^3
same,Tumour volume Average,"[2]; 20 mg/kg intra-tumoural once daily for five days, Day 16",391.0 mm^3
same,Tumour volume Average,"[2]; 20 mg/kg intra-tumoural once daily for five days, Day 18",476.9 mm^3
same,Tumour volume Average,"[2]; 20 mg/kg intra-tumoural once daily for five days, Day 21",601.5 mm^3
same,Tumour volume Average,"[2]; 20 mg/kg intra-tumoural once daily for five days, Day 24",702.1 mm^3
same,average tumour weight at the end of the study,"[2]; 20 mg/kg intra-tumoural once daily for five days, Day 24, control 0.962 g",0.437 g
same,tumour growth compared to the vehicle only control,[2]; FIG. 16,markedly inhibited
same,Tumour volume Delta avg,[2]; Day 0,0.0 mm^3
same,Tumour volume Delta avg,[2]; Day 2,68.6 mm^3
same,Tumour volume Delta avg,[2]; Day 4,144.0 mm^3
same,Tumour volume Delta avg,[2]; Day 7,180.6 mm^3
same,Tumour volume Delta avg,[2]; Day 11,232.9 mm^3
same,Tumour volume Delta avg,[2]; Day 14,255.9 mm^3
same,Tumour volume Delta avg,[2]; Day 16,323.1 mm^3
same,Tumour volume Delta avg,[2]; Day 18,408.9 mm^3
same,Tumour volume Delta avg,[2]; Day 21,598.7 mm^3
same,Tumour volume Delta avg,[2]; Day 24,710.4 mm^3
same,dT/dC [%],[2]; Day 0,100.0%
same,dT/dC [%],[2]; Day 2,134.3%
same,dT/dC [%],[2]; Day 4,102.0%
same,dT/dC [%],[2]; Day 7,68.1%
same,dT/dC [%],[2]; Day 11,58.0%
same,dT/dC [%],[2]; Day 14,44.6%
same,dT/dC [%],[2]; Day 16,45.2%
same,dT/dC [%],[2]; Day 18,47.1%
same,dT/dC [%],[2]; Day 21,55.7%
same,dT/dC [%],[2]; Day 24,54.5%
